Ends that are not written are not given here.
Columns and labels:
[1] = test system: cord-blood precursor-derived mast cells; settings: cited from earlier work
[2] = test system: freshly isolated human lung mast cells; settings: cited from earlier work
[3] = test system: human lung mast cells; experiment: Histamine release assay in cultured human lung mast cells; format: cell-based; settings: agent alone on cultured human lung mast cells
Protocol: Release of histamine in response to various stimuli was also examined.
Mast cells (10-50×10^3/tube) in PAGCM were preincubated at 37° C. then challenged with buffer or anti-FcεRI in doubling dilutions. In experiments examining the effects of beta-agonist and purinergic agonists, agents were added to cells at 37° C. for 15 minutes prior to FcεRI-mediated challenge. Twenty minutes following challenge, cells were rapidly pelleted and supernatants removed for histamine analysis. Histamine release was expressed as the net histamine released divided by the total histamine content ×100%. The total cellular histamine content was determined following cell lysis with 2% perchloric acid. […] Histamine measurements were performed using the automated spectrofluorometric method of Technicon (Tarrytown, N.Y.). […] All assays were run in duplicates.

[4] = test system: human lung mast cell cultures; experiment: Beta-receptor responsiveness: inhibition of histamine release; format: cell-based; settings: cultured human lung mast cells, agents added 15 minutes prior to FcεRI-mediated challenge
Protocol: Beta-receptor responsiveness of human lung mast cell cultures of the present invention were also examined using the prototype agonist, isoproterenol, as well as with the long-acting beta agonist, salmeterol.
Mast cells (10-50×10^3/tube) in PAGCM were preincubated at 37° C. then challenged with buffer or anti-FcεRI in doubling dilutions. In experiments examining the effects of beta-agonist and purinergic agonists, agents were added to cells at 37° C. for 15 minutes prior to FcεRI-mediated challenge. Twenty minutes following challenge, cells were rapidly pelleted and supernatants removed for histamine analysis. Histamine release was expressed as the net histamine released divided by the total histamine content ×100%. The total cellular histamine content was determined following cell lysis with 2% perchloric acid. Spontaneous histamine release was always <2% of cellular histamine and generally <1%. Histamine measurements were performed using the automated spectrofluorometric method of Technicon (Tarrytown, N.Y.). Variations between replicates were consistently <5%. All assays were run in duplicates.

[5] = test system: human lung mast cells; experiment: Proliferation assay using 3H-thymidine uptake; format: cell-based; settings: for effect on proliferation when added to medium containing stem cell factor and interleukin-4: added on top of stem cell factor and interleukin-4
Protocol: Uptake of ^3H-thymidine was also monitored as a measure of survival and proliferation of human lung mast cell cultures of the present invention in the presence of different cytokine growth factors. In these experiments, ^3H-thymidine was added to human lung mast cell aliquots from three individuals at 5 through 7 weeks of culture. […] In the absence of stem cell factor, cells died within 3-5 days. Medium with stem cell factor alone produced a 60% increase in uptake. Medium to which stem cell factor and interleukin-4 were added produced a greater than 4-fold increase in proliferation versus stem cell factor alone.
At days 35-49, when cultures contained >95-99% mast cells, 2×10^4 mast cells in 50 μl culture medium were placed in triplicate in 96 well flat-bottomed plates and ^3H-thymidine (0.5 μCi/50 μl/well) added. After four days, cells were harvested on a glass fiber filter, washed ×3, and radioactive uptake was evaluated by a beta counter. Since the cultures contained virtually homogeneous populations, the counts reflected mast cell proliferation and not that of cellular contaminants. The results were expressed as the percent increase in radioactivity over mast cell cultured in medium alone.

[6] = test system: mast cells from CD34 positive precursor stem cells; settings: added to precursor-derived mast cell culture system; cited from earlier work

## Nc1ncnc2c1ncn2[C@@H]1O[C@H](CO)[C@@H](O)[C@H]1O [Adenosine, adenosine]
[1]
  effect on IgE-mediated histamine release: inhibits IgE-mediated histamine release
[2]
  effect on anti-IgE-induced histamine release: enhancement of anti-IgE-induced release

## CNc1ccc2oc(C[C@H]3O[C@@]4(CC[C@H]3C)O[C@H]([C@H](C)C(=O)c3ccc[nH]3)[C@H](C)C[C@H]4C)nc2c1C(=O)O [A23187]
[3]
  histamine release, in words: in similar fashion to freshly isolated human lung mast cells

## Nc1ncnc2c1ncn2[C@@H]1O[C@H](COP(=O)(O)OP(=O)(O)OP(=O)(O)O)[C@@H](O)[C@H]1O [ATP]
[3]
  histamine release, in words: neither ATP nor UTP alone triggered appreciable histamine release

## CC(C)NCC(O)c1ccc(O)c(O)c1 (stereo not shown) [isoproterenol]
[4]
  IC50: 0.09 nM

## OCc1cc(C(O)CNCCCCCCOCCCCc2ccccc2)ccc1O (stereo not shown) [salmeterol]
[4]
  IC50: 0.1 nM

## O=c1ccn([C@@H]2O[C@H](COP(=O)(O)OP(=O)(O)OP(=O)(O)O)[C@@H](O)[C@H]2O)c(=O)[nH]1 [UTP, uridine 5′ triphosphate]
[3]
  histamine release, in words: neither ATP nor UTP alone triggered appreciable histamine release

## interferon-y: cytokine added to culture medium containing stem cell factor and interleukin-4
[5]
  effect on proliferation when added to medium containing stem cell factor and interleukin-4: marked reduction in proliferation

## interleukin-9: cytokine growth factor
[5]
  effect on proliferation when added to medium containing stem cell factor and interleukin-4: even greater enhancement in proliferation

## stem cell factor: cytokine growth factor added to the culture medium
[5]; medium with stem cell factor alone, over medium alone
  increase in 3H-thymidine uptake: 60%

## substance P (RPKPQQFFGLM; ends and bridges not checked; UniProt P20366 58-68, looked up)
[3]
  histamine release, in words: failed to provoke histamine release

B1: interleukin-4: cytokine growth factor; the cytokine that most defines allergic immunity (protein, UniProt P05112 25-153, looked up)
Interleukin-4: HKCDITLQEIIKTLNSLTEQKTLCTELTVTDIFAASKNTTEKETFCRAATVLRQFYSHHEKDTRCLGATAQQFHRHKQLIRFLKRLDRNLWGLAGLNSCPVKEANQSTLENFLERLKTIMREKYSKCSS
[5]; interleukin-4 added in the absence of stem cell factor, 5 through 7 weeks of culture
  proliferation (3H-thymidine uptake): no proliferation in excess of that seen in culture medium alone
[6]
  programmed cell death (apoptosis): induces programmed cell death (apoptosis)

Reference: patent US7524679B2, “Methods for culturing human lung mast cells and uses thereof” (Philadelphia, Health and Education Corporation, priority 2001, dated 2009)
